# Laboratory results from US20170183637A1, “SPLIT RECOMBINANT LUCIFERASE, AND ANALYSIS METHOD USING THEREOF” (OLYMPUS CORPORATION, priority 2014, published 2017).
# B1: OKI359: C-terminal fragment, residues 359 to 562 of OKI-derived luciferase; names the permutated luciferase made with OKI-N (protein)
# chain: KPGACGKVAPFFSAKIVDLDTSKTLGVNQRGELCLKGPMIMKGYVNNPEATNALIDKDGWLHSGDLAYYDKDGHFFIVDRLKSLIKYQGYQVPPAELESILLQHPFIFDAGVAGIPDADAGELPAAVVVLEEGKTMTEQEVMDYVAGQVTASKRLRGGVKFVDEVPKGLTGKIDSRKIREMLTMGKKSKL
# What was measured:
# [1] = system: 5HT2A receptor-expressing HEK293 cells; assay: High-speed luminescence imaging of changes in calcium ion concentrations upon 5HT stimulation (Experiment 11); type: cell-based, human; conditions: 5HT 10 μM; cpSfRE55-CaM in 5HT2A receptor-expressing HEK293 cells; images every 500 milliseconds; FIG. 15
# Experimental: The cells cultured in Procedure 1 were seeded onto 35 mm-diameter glass bottom dishes at a density of 2×10^5 cells/dish and cultured overnight in a 5% CO2 incubator. The human 5HT2A receptor expression plasmid pcDNA/5HT2AR and luminescent calcium indicator expression plasmid were transferred into the cells by electroporation using NEPA21 and the cells were cultured overnight in a 5% CO2 incubator.
# 2 mM luciferin (Promega) was added to the culture medium of the culture obtained in Procedure 2 and the culture was allowed to stand for 1 h. The culture dish was loaded onto a luminescence microscope (LV-200, Olympus) and time-lapse image capturing was performed to acquire luminescence images at an interval of 500 milliseconds. Luminescence observation conditions were as follows: magnification of objective lens:=40×, exposure time=200 milliseconds, and binning=2×2. Using an EM-CCD camera (iXon, Andor), luminescence images were taken and transferred to a personal computer. […]
# Regions of interest (ROIs) were designated for each luminescence image captured in Procedure 3 and for each luminescence image captured in Procedure 4. […] The luminescence images were analyzed using MetaMorph software (Universal imaging). […]
# [2] = system: HEK293 cells; assay: Luminescence measurement of changes in intracellular calcium level in HEK293 cells upon ATP stimulation (Experiment 9); type: cell-based; conditions: ATP 200 μM, luciferin 2 mM, luminometer, FIG. 13
# Experimental: HEK293 cells (1×10^6 cells) were collected by centrifugation and luminescent calcium indicator expression vectors were transferred into the cells by electroporation using NEPA21. The transfected HEK293 cells were seeded into a 24-well multiplate at a concentration of 1×10^5 cells/well and cultured overnight in a 5% CO2 incubator.
# After rinsing the cells with CO2-independent culture medium twice, 200 μL of CO2-independent culture medium containing D-luciferin (final conc.=2 mM) was added and the plate was allowed to stand for 15 min.
# The plate was placed in a luminometer (Luminescencer-JNR II, ATTO), and luminescence intensity for pre- and post-ATP (200 μM) stimulation was measured over time.
# Luminescent calcium indicators were transferred into HEK293 cells and the cells were cultured overnight. The cells were rinsed with CO2-independent culture medium, luciferin was added to the CO2-independent culture medium to a final luciferin concentration of 2 mM, and the culture was allowed to stand for 15 min, followed by measurement of luminescence intensity using a luminometer.
# [3] = system: HEK293 cells; assay: Luminescence-based calcium imaging in HEK293 cells upon ATP stimulation (Experiment 10); type: cell-based; conditions: FIG. 14
# Experimental: HEK293 cells were acquired from ATCC and cultured in a 5% CO2 incubator in Earle's MEM culture medium (GIBCO) supplemented with 10% Fetal Bovine Serum and 1× Nonessential amino acids.
# The cultured HEK293 cells were seeded onto 35 mm-diameter glass bottom dishes at a density of 2×10^5 cells/dish and cultured overnight in a 5% CO2 incubator. Luminescent calcium indicator expression plasmids were transferred into the HEK293 cells by electroporation using NEPA21 and cultured overnight in a 5% CO2 incubator.
# 2 mM luciferin (Wako Pure Chemical industries, Ltd.) was added to the culture medium and the culture was allowed to stand for 1 h. The culture dish was then loaded onto a luminescence microscope (LV-200, Olympus) and time-lapse image capturing was performed to acquire luminescence images at an interval of 10 sec. Luminescence observation conditions were as follows: magnification of objective lens=40×, exposure time=5 sec, and binning=1×1. An EM-CCD camera (iXon, Andor) was used as a CCD camera, and luminescence images were transferred to a personal computer configured as an image analyzer.
# Changes in luminescence intensity of luminescent calcium indicators in response to changes in intracellular calcium ion concentration upon addition of ATP in culture medium were imaged. […] The luminescence images were transferred to the PC every 10 sec. […]
# [4] = system: E. coli (JM109 (DE3)); assay: Luminescence activity of permutated and heterologous permutated firefly luciferase expressed in E. coli (Experiments 1 and 2); type: cell-based; conditions: Bright-Glo, 5 min room temperature, counts per 10 sec, FIG. 3
# Experimental: The pRSET vector containing the permutated firefly luciferase gene was transformed into JM109(DE3) strain of E. coli and cultured overnight at 37° C. To 50 μL of culture was added 50 μL of Bright-Glo (Promega) and the culture was allowed to stand for 5 min at room temperature. Luminescence level for 10 sec was then measured using a luminometer (Luminescencer-JNR II, ATTO).
# The prepared expression vector was transformed into E. coli (JM109 (DE3)) and cultured overnight in LB medium. To 50 μL of culture was added an equal volume of Bright-Glo and the culture was allowed to stand for 5 min at room temperature. Luminescence level of the reaction solution was reported as counts per 10 sec measured with the luminometer. As a control, permutated luciferase (GL4) derived from the North American firefly (Pholinus pyralis) luciferase was used. In FIG. 3, luminescence activities of GL4-derived and OKI-derived permutated luciferases are shown in terms of relative values with the activity of GL4 being 1. The vertical axis in FIG. 3 represents relative luminescence level.
# The pRSET vector containing the heterologous permutated luciferase gene was transformed into JM109(DE3) strain of E. coli and cultured overnight at 37° C. in LB medium. […] Luminescence level for 10 sec was then measured using a luminometer (Luminescencer-JNR II, ATTO). […]
molecule,measurement,setting,value
"NCCc1c[nH]c2ccc(O)cc12 [5HT, Serotonin]",luminescence intensity response of indicator-expressing cells to 5HT stimulation,[1],"cells that exhibited oscillation, as well as cells that exhibited a transient reduction in luminescence intensity"
"Nc1ncnc2c1ncn2[C@@H]1O[C@H](COP(=O)(O)OP(=O)(O)OP(=O)(O)O)[C@@H](O)[C@H]1O [ATP, adenosine tri phosphate]",change in luminescence intensity of luminescent calcium indicator upon ATP stimulation,[2],reductions in luminescence intensity
same,time course of luminescence intensity change caused by ATP stimulation,[3],transient
same,luminescence intensity of indicator-expressing cells after ATP stimulation (single-cell imaging),"[3]; luciferin 2 mM, exposure 5 sec",decreased levels of luminescence intensity
B1,"luminescence activity (relative luminescence level, GL4 being 1)",[4],high levels of luminescence activity
